The values that follow come from ChEMBL document CHEMBL1201862, “PubChem BioAssay data set” (2004).

Values joined by “and” are separate entries in the source; they are usually repeats but may differ in a detail not shown here. Identical values can stand only once.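 Following 48 hours of exposure in 96-well plates, responses at five concentrations were used to interpolate endpoints linearly. The concentration for 50% growth inhibition is given as GI50.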 Active and inactive are the calls of the source. Rule as the data show it: active = GI50 up to about 1.1 µM and inactive = higher.

Some test systems named below: HCT-15; K562; LOX IMVI; OVCAR-4; UACC-62; OVCAR-5; CAKI-1; SF-295; HOP-92; TK-10; HOP-62; SR; ACHN; A549; IGROV-1; NCI-H23; NCI-H226; NCI-H460; HCC 2998; NCI-H522.
What all share (test): DTP human tumour cell line panel, 48 h

With `COC1OC2COC(c3ccccc3)OC2C(OC(=S)c2ccccc2)C1O` (configuration not stated), the GI50 is over 100 µM in the assay with HCT-15; > 100 µM (inactive) with K562; 7.76 µM (inactive) in the assay with LOX IMVI; > 100 µM (inactive) in the assay with OVCAR-4; > 100 µM (inactive) in the assay with UACC-62; > 100 µM (inactive) with OVCAR-5. Further, the GI50 with CAKI-1 is 41 µM (inactive); in the assay with SF-295, 28.8 µM (inactive); in the assay on HOP-92 it was > 100 µM (inactive); with TK-10, 28.2 µM (inactive); in the assay with HOP-62 it was 12 µM (inactive); in the assay on SR it was > 100 µM (inactive). The GI50 was 75.5 µM (inactive) with ACHN; 13.4 µM (inactive) in the assay on A549; > 100 µM (inactive) with IGROV-1; 82.4 µM (inactive) in the assay with NCI-H23; 25.1 µM (inactive) in the assay with NCI-H226; 65.9 µM (inactive) in the assay on NCI-H460.
For the compound `COC(=O)c1cc(-c2cccn2C)c2c(c1C(=O)OC)c1ccccc1n2C`, the GI50 in the assay with HCT-15 is 22.4 µM; in the assay on HCC 2998, 45.5 µM (inactive); in the assay with K562, 13.5 µM (inactive); with LOX IMVI, 56 µM (inactive); in the assay on OVCAR-4 it was 37.8 µM (inactive); in the assay with UACC-62 it was > 100 µM (inactive). In addition, the GI50 in the assay with SF-295 is 41.3 µM (inactive); in the assay with HOP-92, 50.5 µM (inactive); in the assay on TK-10 it was > 100 µM (inactive); in the assay with SR, 16.9 µM (inactive); in the assay on ACHN, 17.9 µM (inactive); with A549, 31.8 µM (inactive). In addition, the GI50 with IGROV-1 is > 100 µM (inactive); in the assay with NCI-H23, 85.7 µM (inactive); in the assay with NCI-H522, 18.1 µM (inactive); with NCI-H460, 39.8 µM (inactive).
As to `Cc1cccc(NC(=O)/C(=N\N)C(c2cnc3ccc([N+](=O)[O-])cc3n2)[N+](=O)[O-])c1C` (configuration not stated), the GI50 is 53.8 µM in the assay on HCT-15; > 100 µM (inactive) with HCC 2998; 74.8 µM (inactive) with LOX IMVI; > 100 µM (inactive) with OVCAR-4; 66.2 µM (inactive) in the assay on UACC-62; > 100 µM (inactive) with CAKI-1. The GI50 in the assay on SF-295, in the assay with HOP-92, in the assay with TK-10, with HOP-62, with SR and in the assay with ACHN was > 100 µM (inactive) each time. Further, the GI50 was > 100 µM (inactive) with A549; > 100 µM (inactive) in the assay with IGROV-1; > 100 µM (inactive) in the assay on NCI-H23; > 100 µM (inactive) in the assay on NCI-H226; 40.2 µM (inactive) with NCI-H522; > 100 µM (inactive) with NCI-H460.
Take `COC(=O)C(C(=O)C(=O)Nc1nnc(S)[nH]1)c1csc(-n2nc(-c3ccccc3)cc2-c2ccccc2)n1` (configuration not stated): the GI50 in the assay on HCT-15 was over 100 µM; in the assay on HCC 2998, > 100 µM (inactive); in the assay on K562 it was > 100 µM (inactive); with LOX IMVI, > 100 µM (inactive); with OVCAR-4, > 100 µM (inactive); with UACC-62, > 100 µM (inactive). The GI50 was > 100 µM (inactive) with OVCAR-5; > 100 µM (inactive) in the assay on CAKI-1; 44.5 µM (inactive) in the assay on HOP-92; > 100 µM (inactive) in the assay on TK-10; > 100 µM (inactive) in the assay with HOP-62; > 100 µM (inactive) with SR. The GI50 in the assay with ACHN, in the assay on A549, in the assay with IGROV-1, in the assay on NCI-H23, with NCI-H226 and in the assay on NCI-H522 was > 100 µM (inactive) in each case. Besides, in the assay with NCI-H460, the GI50 was > 100 µM (inactive).
As to `Oc1ccc2ccccc2c1/N=N/c1ccccc1`, the GI50 with HCT-15 was over 100 µM; with HCC 2998, > 100 µM (inactive); in the assay with K562 it was > 100 µM (inactive) and 91 µM (inactive); with LOX IMVI it was > 100 µM (inactive); in the assay with OVCAR-4, > 70.5 µM (inactive) and 45.2 µM (inactive); with UACC-62 it was > 100 µM (inactive). Moreover, the GI50 in the assay with OVCAR-5 was > 100 µM (inactive); in the assay with CAKI-1, > 100 µM (inactive); with HOP-92 it was 73.5 µM (inactive); in the assay on TK-10, 73.3 µM (inactive); in the assay with HOP-62 it was 33.5 µM (inactive) and > 60 µM (inactive); in the assay on SR, > 100 µM (inactive). The GI50 with ACHN was 61 µM (inactive) and 60.7 µM (inactive); in the assay with A549 it was 57.5 µM (inactive); with IGROV-1, > 69.2 µM (inactive); in the assay on NCI-H23, > 100 µM (inactive); in the assay with NCI-H226 it was 73.3 µM (inactive); in the assay on NCI-H522, > 100 µM (inactive) and > 75.3 µM (inactive). Moreover, the GI50 with NCI-H460 is > 100 µM (inactive).
Regarding `O=C(N/N=C/c1cc(Br)cc(Br)c1O)c1ccccc1O`, the GI50 in the assay on HCT-15 was 0.422 µM; in the assay on HCC 2998, 1.03 µM (active); in the assay with LOX IMVI, 0.399 µM (active); in the assay with OVCAR-4, 0.267 µM (active); with UACC-62 it was 0.368 µM (active); in the assay on OVCAR-5, 0.723 µM (active). For the same compound, the GI50 in the assay on CAKI-1 was 0.8 µM (active); in the assay with SF-295, 0.9 µM (active); in the assay with HOP-92, 1.2 µM (inactive); with TK-10 it was 0.944 µM (active); with HOP-62, 0.832 µM (active); in the assay with SR, 0.258 µM (active). Also, the GI50 is 0.436 µM (active) in the assay on ACHN; 1.1 µM (active) with A549; 0.867 µM (active) in the assay on IGROV-1; 0.52 µM (active) in the assay with NCI-H23; 0.32 µM (active) with NCI-H226; 0.311 µM (active) with NCI-H522. In addition, in the assay on NCI-H460, the GI50 is 0.64 µM (active).
As for `C1=N\CCOCC/N=C\c2ccc(cc2)OCc2cccc(n2)COc2ccc/1cc2`, the GI50 with HCT-15 was over 100 µM; in the assay with K562, > 100 µM (inactive); in the assay on OVCAR-4, > 100 µM (inactive); in the assay on UACC-62 it was > 100 µM (inactive); in the assay with OVCAR-5 it was > 100 µM (inactive); with SF-295 it was 98.2 µM (inactive). Also, the GI50 in the assay with HOP-92, with TK-10, with HOP-62, in the assay on SR, with ACHN and in the assay on A549 was > 100 µM (inactive) each time. In addition, the GI50 in the assay with IGROV-1 was > 100 µM (inactive); with NCI-H23 it was > 100 µM (inactive); with NCI-H226, 57.8 µM (inactive); in the assay with NCI-H522, > 100 µM (inactive); with NCI-H460, > 100 µM (inactive).
Regarding `Cc1cn(C2CC(N)C(C(=O)NCC(=O)O)O2)c(=O)[nH]c1=O` (configuration not stated), the GI50 in the assay on HCT-15 is over 100 µM; with HCC 2998, > 100 µM (inactive); with K562 it was 95.3 µM (inactive); in the assay on LOX IMVI, > 100 µM (inactive); in the assay with OVCAR-4, > 100 µM (inactive); in the assay with UACC-62, > 100 µM (inactive). The GI50 with OVCAR-5, in the assay on CAKI-1, with HOP-92, in the assay with TK-10, with HOP-62 and in the assay on SR was > 100 µM (inactive) in each case. The GI50 in the assay on ACHN, in the assay with IGROV-1, in the assay with NCI-H23, with NCI-H226, in the assay on NCI-H522 and in the assay on NCI-H460 was > 100 µM (inactive) throughout.
For the compound `CCN1CCC(O)(C(C(=O)O)c2ccccc2)CC1` (configuration not stated), the GI50 with HCT-15 is over 100 µM; in the assay on HCC 2998, > 100 µM (inactive); in the assay on K562, > 100 µM (inactive); with LOX IMVI, > 100 µM (inactive); in the assay with OVCAR-4, > 100 µM (inactive); in the assay with UACC-62 it was > 100 µM (inactive). Besides, the GI50 in the assay with OVCAR-5, with CAKI-1, with SF-295, with TK-10, in the assay with HOP-62 and with SR was > 100 µM (inactive) each time. For the same compound, the GI50 with ACHN, with A549, with IGROV-1, in the assay on NCI-H23, in the assay on NCI-H226 and with NCI-H522 was > 100 µM (inactive) each time. Besides, the GI50 in the assay with NCI-H460 was > 100 µM (inactive).
As to `O=C(NC1C=Nc2ccc([N+](=O)[O-])cc2NC1=O)c1cc(Cl)cc([N+](=O)[O-])c1` (configuration not stated), the GI50 with HCT-15 is over 100 µM; with HCC 2998 it was > 100 µM (inactive); in the assay on K562, 38.8 µM (inactive); in the assay with LOX IMVI, > 100 µM (inactive); in the assay on OVCAR-4 it was > 100 µM (inactive); in the assay with UACC-62, 44.2 µM (inactive). Further, the GI50 in the assay on OVCAR-5, in the assay with CAKI-1, in the assay on SF-295, with HOP-92, with TK-10 and in the assay on HOP-62 was > 100 µM (inactive) each time. Further, the GI50 with SR is 72.3 µM (inactive); with ACHN it was > 100 µM (inactive); in the assay with A549 it was > 100 µM (inactive); in the assay with IGROV-1 it was > 100 µM (inactive); in the assay on NCI-H23, > 100 µM (inactive); in the assay on NCI-H226, > 100 µM (inactive). The GI50 in the assay on NCI-H522 is 8.65 µM (inactive); in the assay on NCI-H460, > 100 µM (inactive).
Regarding `COc1ccc(NC(=O)CC(=O)N2N=C(N3c4ccccc4Sc4ccccc43)CC2c2ccccc2)cc1` (configuration not stated), the GI50 with HCT-15 is over 100 µM; in the assay with HCC 2998 it was > 100 µM (inactive); in the assay on K562, > 100 µM (inactive); in the assay on OVCAR-4, > 100 µM (inactive); with UACC-62, > 100 µM (inactive); in the assay with OVCAR-5, > 100 µM (inactive). Besides, the GI50 with CAKI-1, with SF-295, in the assay on HOP-92, in the assay on TK-10, in the assay with HOP-62 and in the assay on SR was > 100 µM (inactive) in each case. For the same compound, the GI50 in the assay with ACHN, in the assay with A549, in the assay on IGROV-1, in the assay with NCI-H23, in the assay with NCI-H226 and in the assay on NCI-H522 was > 100 µM (inactive) throughout. The GI50 in the assay on NCI-H460 was > 100 µM (inactive).

For orientation: GI50 means the concentration at which growth is held to half of that of the control.
